# Reference: patent US10072009B2, “N-substituted beta-carbolinium compounds as potent P-glycoprotein inducers” (Council of Scientific and Industrial Research, priority 2014, dated 2018)
# Read-outs that look alike come from different tables or passages of the source.
# Assays:
# [1] = tested on: P-glycoprotein; assay: P-glycoprotein-induction assay (rhodamine123 cell exclusion method) in LS-180 cells; conditions: for % Rh123 accumulation in LS-180 cells after 48 h: control = 100; for EC50: read-out: Pgp induction EC50 value, LS180 cells treated 48 h, Rh123 fluorescence vs concentration
# Experimental: P-glycoprotein-induction assay. All synthesized compounds were screened for their ability to induce P-glycoprotein by using rhodamine123 (Rh123) cell exclusion method. In this method, the P-glycoprotein function was evaluated in terms of rhodamine 123 (Rh123) accumulation and efflux. Briefly, the protocol used is as follows: Colorectal LS180 cells Colorectal LS-180 cells [obtained from ECACC (European Collection of Cell Cultures) catalogue number: 87021202; passage number 52] were seeded at a density of 2×10^4 per well of 96 well plate and were allowed to grow for next 24 h. Cells were further incubated with the test compounds, and were diluted to a final concentration of 100 nM and rifampicin (standard) to a final concentration of 10 μM in complete media for 48 h. The final concentration of DMSO was kept at 0.1%. Drugs were removed and cells were incubated with HANKS buffer for 40 minutes before further incubation with HANKS buffer (containing 10 μM of Rh123 as a P-glycoprotein substrate) for 90 minutes. At the end of Rh123 treatment cells were washed four times with cold PBS followed by cell lysis for 1 h by using 200 μl of lysis buffer (0.1% Triton X-100 and 0.2 N NaOH). A total of 100 μl of lysate was used for reading fluorescence of Rh123 at 485 nm/529 nm Samples were normalized by dividing fluorescence of each sample with total protein present in the lysate. The Pgp-induction activity was measured in terms of the % intracellular accumulation of rhodamine 123/total protein inside LS180 cells. The decrease in the % intracellular accumulation (compared to control) of Rh123 indicates induction of P-glycoprotein as shown in Table 1. Rifampicin (10 μM) was used as a reference P-glycoprotein inducer. Statistical comparisons were made between control vs compounds by using Bonferroni test. The p value <0.5 was considered to be significant.
# The decrease in % intracellular accumulation (compared to control) of Rh123 indicates induction of Pgp. Rifampicin (10 μM) was used as a reference Pgp inducer.
# EC50 determination in p-glycoprotein-induction assay. […] For EC50 determination, different concentrations of compound were used to treat LS180 cells for 48 h. EC50 was determined by plotting fluoroscence of Rh123 against concentration of compound.
# [2] = Thermodynamic equilibrium solubility; assay type: physicochemical; conditions: for solubility: 25 °C, thermodynamic from solid
# Experimental: Determination of thermodynamic equilibrium solubility. The compounds were first dissolved in methanol to prepare stock solutions (100 and 1000 μg/mL) Different concentrations of stock solutions were pipetted into the 96-well plates and the solvent was evaporated to ensure that solid drug was present in the beginning of the experiment. […] The plates were kept overnight for equilibration of drug in medium. Later, the plates were centrifuged at 3000 rpm for 15 min (Jouan centrifuge BR4i). Supernatant (50 μl) was pipetted into UV 96-well plates (Corning® 96 Well Clear Flat Bottom UV-Transparent Microplate) for analyses with plate reader (SpectraMax Plus384) at λmax of 350 nm. The analyses were performed in triplicate for each compound. The solubility curve of concentration (μg/mL) vs absorbance was plotted to find out saturation point and the corresponding concentration was noted. The solubility of fascaplysin (1) and compounds 6 and 11 was determined.
# [3] = tested on: mouse leukemia cells L-1210; conditions: read-out: ED50, suppression of proliferation of L-1210 cells; cited from earlier work
# [4] = target: acetylcholinesterase (AChE); conditions: read-out: AChE inhibition IC50; cited from earlier work
# [5] = compounds at 5 μM (table footnote), decrease indicates Pgp induction
molecule,measurement,setting,value
6-chloro-fascaplysin [Compound 5],% Rh123 accumulation in LS-180 cells after 48 h,[1]; [5],59.2 ± 6.7 %
"O=C1c2ccccc2-[n+]2ccc3c([nH]c4ccccc43)c21.[Cl-] [Compound 1, Fascaplysin]",solubility,"[2]; aqueous buffer, phosphate buffer saline, read-out: Solubility in PBS",> 1500 µg/mL
same,solubility,"[2]; simulated gastric fluid, simulated gastric fluid, read-out: Solubility in SGF",> 1500 µg/mL
same,solubility,"[2]; simulated intestinal fluid, read-out: Solubility in SIF",> 1500 µg/mL
same,solubility,"[2]; water, water, 25±1° C., thermodynamic equilibrium, read-out: Solubility in Water",> 800 µg/mL
same,Solubility in Water,"[2]; water, 25±1° C., thermodynamic equilibrium",>1500 µg/mL
same,EC50,[3],200 nM
same,IC50,[4],1490 nM
same,EC50,[1],2.8 nM
"O=C1c2ccc(Cl)cc2-[n+]2ccc3c([nH]c4ccccc43)c21 [Compound 2, 4-chloro-fascaplysin]",% Rh123 accumulation in LS-180 cells after 48 h,[1]; [5],57.1 ± 9.2 %
"O=C1c2cc(F)c(Cl)cc2-[n+]2ccc3c([nH]c4ccccc43)c21 [Compound 3, 4-chloro-5-fluoro-fascaplysin]",% Rh123 accumulation in LS-180 cells after 48 h,[1]; [5],55.5 ± 6.9 %
"O=C1c2ccc(Cl)c(Cl)c2-[n+]2ccc3c([nH]c4ccccc43)c21 [Compound 4, 3,4-dichloro-fascaplysin]",% Rh123 accumulation in LS-180 cells after 48 h,[1]; [5],57.8 ± 8.3 %
"O=C1c2cc(F)c(F)cc2-[n+]2ccc3c([nH]c4ccccc43)c21 [Compound 6, 4,5-difluoro-fascaplysin]",Solubility in Water,[2],>1500 µg/mL
same,solubility,"[2]; aqueous buffer, Solubility in PBS",80 µg/mL
same,solubility,"[2]; fassgf or other biorelevant, Solubility in SIF",< 5 µg/mL
same,solubility,"[2]; simulated gastric fluid, Solubility in SGF",80 µg/mL
same,solubility,"[2]; water, Solubility in Water",> 800 µg/mL
same,% Rh123 accumulation in LS-180 cells after 48 h,[1]; [5],49.6 ± 1.2 %
same,EC50,[1],2 nM
"O=C1c2cc(Cl)ccc2-[n+]2ccc3c([nH]c4ccccc43)c21 [Compound 7, 5-chloro-fascaplysin]",% Rh123 accumulation in LS-180 cells after 48 h,[1]; [5],58.7 ± 7.8 %
"Cn1c2ccccc2c2cc[n+](C)c(C(=O)c3ccccc3)c21 [Compound 8, 1-benzoyl-9,N-dimethyl beta-carbolinium iodide]",% Rh123 accumulation in LS-180 cells after 48 h,[1]; [5],75.2 ± 9.1 %
"Cn1c2ccccc2c2cc[n+](C)c(C(=O)c3ccccc3Cl)c21 [Compound 9, 1-(2-chloro-benzoyl)-9, N,N-dimethyl beta-carbolinium iodide]",% Rh123 accumulation in LS-180 cells after 48 h,[1]; [5],71.4 ± 8.4 %
"Cn1c2ccccc2c2cc[n+](C)c(C(=O)c3c[nH]c4ccccc34)c21 [Compound 10, 1-(3-indoloyl)-9,N-dimethyl beta-carbolinium iodide]",% Rh123 accumulation in LS-180 cells after 48 h,[1]; [5],77.6 ± 7.6 %
"Cn1c2ccccc2c2cc[n+](C)c(C(=O)c3ccccc3Br)c21 [Compound 11, 1-(2-bromo-benzoyl)-9,N-dimethyl beta-carbolinium iodide]",Solubility in Water,[2],800 µg/mL
same,solubility,"[2]; water, Solubility in Water",> 800 µg/mL
same,% Rh123 accumulation in LS-180 cells after 48 h,[1]; [5],70.1 ± 6.7 %
same,EC50,[1],3 nM
"Cn1c2ccccc2c2cc[n+](C)c(C(=O)c3ccc(C(F)(F)F)cc3)c21 [Compound 12, 1-(4-trifluoromethyl-benzoyl)-9,N-dimethyl beta-carbolinium iodide]",% Rh123 accumulation in LS-180 cells after 48 h,[1]; [5],78.5 ± 5.8 %
"Cn1c2ccccc2c2cc[n+](C)c(C(=O)c3ccccc3F)c21 [Compound 13, 1-(2-fluoro-benzoyl)-9,N-dimethyl beta-carbolinium iodide]",% Rh123 accumulation in LS-180 cells after 48 h,[1]; [5],79.0 ± 6.0 %
"CO[C@H]1/C=C/O[C@@]2(C)Oc3c(C)c(O)c4c(O)c(c(/C=N/N5CCN(C)CC5)c(O)c4c3C2=O)NC(=O)/C(C)=C\C=C\[C@H](C)[C@H](O)[C@@H](C)[C@@H](O)[C@@H](C)[C@H](OC(C)=O)[C@@H]1C [Rifampicin, reference compound]",% Rh123 accumulation in LS-180 cells after 48 h,"[1]; rifampicin 10 μM, reference Pgp inducer",67.1 ± 4.6 %
